The test system of series [1] is human dermal fibroblasts (HDF). The series can be described thus: Cytotoxicity, MTS cell viability assay. It counts as cell-based. How it is done: To evaluate the cytotoxicity of the peptides, human dermal fibroblasts (HDF) were treated for 24 h, and cell viability was determined via MTS assays (FIG. 13).
Human dermal fibroblast cells (HDF, Detroit 551, ATCC #CCL-110) were cultured in Dulbecco's modified Eagle medium (DMEM; Fisher, Pittsburgh, PA) supplemented with 10% fetal bovine serum (FBS) and 1% penicillin/streptomycin for 24 h. All cells were cultured to 90% confluence in a 37° C., humidified, 5% CO2/95% air environment. Cells at passage numbers of 4-7 were used in these experiments.
The MTS cell viability assay kit (Promega, Madison, WI, USA) was used to determine cytotoxicity of the peptides. First, HDF cells were seeded on a 96-well plate at a cell density of 5,000 cells/well (equal to 15,385 cells/cm^2), and were incubated overnight for cell adhesion. After overnight incubation, the cell medium in each well was replaced by 100 μL of cell culture medium containing various concentrations of peptides (20 μM to 100 μM). The control samples were cells incubated in cell culture medium only. After 24 h, the treatment medium in each well was removed. The cells were washed with phosphate buffered saline (PBS, pH=7.4, Fisher, PA, USA) and 100 μL of fresh cell culture medium was added to each well, followed by the addition of 20 μL of the MTS reagent. After the cells were incubated for 2.5 h, the absorbance was measured at a wavelength of 490 nm by a spectrophotometer (SpectraMax M3, Molecular Devices, Molecular Devices, Sunnyvale, CA, USA). To estimate the cell numbers in each well, a standard curve expressing the linear correlation between different cell densities and optical densities (R^2>0.95) was plotted, and the cell numbers were determined with this standard curve from the OD490 value recorded in each sample. The cell viability of each sample was calculated by: Cell viability=[(cell density per mL of treated sample)/(cell density per mL of control sample)]×100%. Data were expressed by standard error of the mean (±S.E.M.) and N=3, *p<0.05 compared with control samples.

The test system of series [2] is MDR E. coli. The series can be described thus: Bacterial growth inhibition (growth curves, OD562, 20 h). In kind it is cell-based, multidrug-resistant E. coli (MDR E. coli, ATCC #BAA-2471). Here is the method:
Gram-positive (S. aureus and MRSA) and Gram-negative (E. coli and MDR E. coli) bacteria were incubated with peptide concentrations ranging from 20 to 100 μM, and time-lapsed bacterial growth was monitored for 20 hours by determining the optical density at 562 nm (O.D. 562 nm). […] At the highest concentration tested (100 μM), the time to exponential growth phase of S. aurues was delayed by about 18 h (FIG. 5B), and was prolonged by almost 13 h for MRSA (FIG. 5A), while bacteria incubated without ACA-PA entered the exponential growth phase within 4 h. Gram-positive bacteria were also susceptible to the ACA-PA even below their CMC.
The MIC values of ACA-PA towards drug-resistant bacteria were determined after 24 h of incubation (Table 2).
This assay was performed to investigate the inhibitory effects of each peptide against Gram-positive Staphylococcus aureus (S. aureus, ATCC #25923) and methicillin-resistant S. aureus (MRSA, ATCC #43300), as well as Gram-negative Escherichia coli (E. coli, ATCC #25922), and multidrug-resistant E. coli (MDR E. coli, ATCC #BAA-2471). In all experiments, solutions of each peptide at the concentrations from 20 μM to 100 μM in 3% Tryptic Soy Broth (TSB) media were freshly prepared. A single colony of bacteria was isolated from a stock agar plate and cultured overnight in 4 mL of 3% TSB on a shaking incubator set at 200 rpm and 37° C. The bacteria culture was adjusted to an optical density at 562 nm (OD562) to about 0.52 (10^9 cells/mL), and the resulting bacteria suspension was subsequently diluted to about 10^6 colony forming units (CFU) per mL in each sample. The control samples were bacteria incubated in TSB media without peptides. The bacteria were incubated inside a spectrophotometer (Spectra-Max Paradigm, Molecular Devices, Sunnyvale, CA) at 37° C. under static conditions for 20 h, and the bacterial growth curves were measured in terms of turbidity at OD562 every 2 minutes. The normalized OD562 values of samples were calculated by subtracting the […].

In series [3] the test system is MRSA. The experiment in a line: Live/dead bacterial viability assay. To be noted: 4 h. It counts as cell-based, methicillin-resistant S. aureus (MRSA). The source says:
To further investigate bacteria viability after treatment with ACA-PA, the live/dead assay was used to confirm the antibacterial actions of ACA-PA. Dead bacteria with disrupted membrane were stained a first color, whereas live bacteria were stained with a second color fluorescence. A large amount of robust MRSA bacteria in the untreated control sample appeared a second color and in spherical shapes (FIG. 10A). […] This antibacterial activity was dependent on the concentration of PA, yet was not determined by peptide self-assembly. Nonetheless, Gram-negative MDR E. coli responded to the treatment of ACA-PA differently from Gram-positive MRSA.
The live/dead bacterial viability assay was conducted to further assess the bactericidal efficacy of ACA-PA using the LIVE/DEAD BacLight Bacterial Viability Kits (Kits 71007, Molecular Probes, Eugene, OR, USA). MRSA and MDR E. coli bacteria (100 μl, 10^6 CFU/mL) were incubated with 80 μM and 40 μM of peptide in 3% TSB media at 37° C. for 4 h on a 96-well plate, and the control samples of bacteria were incubated in 3% TSB media only. […] The live bacteria stained fluorescent a second color (SYTO9 nucleic acid stain), whereas the dead bacteria with disrupted membranes stained fluorescent a first color (propidium iodide, PI).

Residues, ends and D or L forms follow the SMILES beside them. *: point of attachment. Palmitoyl = CCCCCCCCCCCCCCCC(=O)*

In the case of `CCCCCCCCCCCCCCCC(=O)N[C@H](C(=O)N[C@H](C(=O)N[C@H](C(=O)N[C@H](C(=O)N[C@@H](CCCCN)C(=O)N[C@@H](CCCCN)C(=O)N[C@@H](CCCCN)C(=O)N[C@@H](CCCCN)C(=O)NCC(=O)N[C@@H](C)C(=O)N[C@@H](CCCCN)C(=O)N[C@@H](CCCCN)C(=O)N[C@@H](C)C(=O)N[C@@H](CCCNC(=N)N)C(=O)N[C@@H](C)C(=O)N[C@@H](C)C(=O)N[C@@H](CCCCN)C(=O)N[C@@H](CCCCN)C(=O)N[C@@H](C)C(=O)N[C@@H](CCCNC(=N)N)C(=O)N[C@@H](C)C(=O)O)C(C)C)C(C)C)C(C)C)C(C)C` [ACA-PA, C16-V4K4G(AKKARA)2 (SEQ ID NO: 7)] (Palmitoyl-VVVVKKKKGAKKARAAKKARA-OH; N-terminus and C-terminus assumed), in series [1], the cytotoxicity result is “moderate cytotoxicity”. The bacterial growth inhibition result in series [2] (20 to 100 μM, 20 h) is “remarkably inhibited the proliferation”; in series [2] (concentrations lower than the CMC), “did not significantly inhibit bacterial growth”. In series [2] (concentrations higher than the CMC (60 μM to 100 μM)), the bacterial proliferation entry is reported as “significantly suppressed”. In series [2] (over 80 μM), the bacterial growth result was “no bacteria growth was observed”. Also, the results for the “bacterial viability (live/dead staining)” value in series [3] (40 μM) and in series [3] (80 μM) were “markedly reduced MRSA viability” and “coverage of dead bacteria increased with low density of live bacteria”, respectively.

(Values after patent US12319752B2, “Heparin-binding cationic peptide self-assembling peptide amphiphiles useful against drug-resistant bacteria” (priority 2016, dated 2025).)
